Laboratory results published in patent US10118929B2, “Nonanoic and decanoic acid derivatives and uses thereof” (SciFluor Life Sciences, Inc., priority 2016, dated 2018).

Tests used:
[1] = biological target: αvβ8 (Homo sapiens (Human), UniProt P06756+P26012); experiment: αVβ8-LAP-TGF β1 integrin binding assay (integrin coupled beads, flow cytometry); settings: for IC50: ligand LAP-TGF β1 20 nM, integrin 10 nM
Procedure: (§1) αVβ6/αVβ8-LAP-TGF β1 Binding Assay
(§2) Integrins αVβ6/αVβ8 coupled beads are treated with an αVβ6/αVβ8 ligand (e.g., LAP TGF-β1 (LAP1)), and the complex is incubated with a primary antibody (Ab), which can be labeled for detection (e.g., fluorescently labeled), and optionally with a secondary antibody, which can be labeled for detection (e.g., fluorescently labeled). Reaction between integrin coupled beads and the ligand was considered as the full reaction, and reaction without the ligand or a compound of the disclosure was considered as the blank reaction. The complex is analyzed, e.g., by either plate reader or Flow Cytometer, to determine modulation of binding between αVβ6/αVβ8 and the ligand (e.g., LAP-TGF β1) by the compounds of the present application.
All αv Integrins are known to bind to proteins with a RGD motif. Two RGD ligands were used in this study: Vitronectin (VN) as a ligand for αvβ3 and αvβ5 (Wayner et al., J. Cell Biol., 113 (4), 919-929, 1991), and LAP TGF-β1 (LAP1) as a ligand for αvβ6 and αvβ8 (Rognoni et al., Nat. Med., 20(4): 350-359, 2014). CWHM12 was used as a positive control for αvβ6 and αvβ8 (Henderson et al., Nat. Med. 19(12), 10.1038/nm.3282 2013), and Cilengitide as a positive control for αvβ3 and αvβ5 (Kumar et al., J. Pharmacol. Exp. Ther., 283, 843-853, 1997).
The integrin coupled Dyna beads were allowed to interact with respective ligands. The integrin-ligand complex was detected with either Primary/Secondary Antibody conjugated with Fluorescein Isothiocyanate (FITC). For αvβ3 and αvβ5, Vitronectin was used as a ligand and a primary antibody conjugated with FITC (Anti-VN-FITC Ab) was used to detect the interaction. For αvβ6 and αvβ8, LAP-TGF β1 was used as ligand and a primary antibody against LAP1 (Anti-LAP1 Ab) and a secondary antibody conjugated with FITC were used to detect the αv β6/αvβ8-LAP-TGF β1 complex. Fluorescence was measured by Flow Cytometry analysis.
5 mg of Dyna beads were weighed in a low protein binding microfuge (Eppendorf) tube (1.5 mL volume). The beads were re-suspended in 1 mL of Sodium Phosphate Buffer and vortexed at high speed for 30 seconds. The tube was then placed in a tube roller and tilt rotated for 10 min. After tilt rotation, the tube was placed on the Magna Spin and the beads were allowed to settle. The supernatant was discarded and the beads were washed three times. The beads were then re-suspended in 100 μL of Sodium Phosphate Buffer and 20 μL of washed beads were distributed into 5 low protein binding Eppendorf tubes (1 mg of beads in each tube). The beads were used for coupling integrins. […]
(§3) The tubes were taken out and subjected to a quick spin. […] The amount of protein bound to beads was quantified by measuring the sum of protein left in the Supernatant, W1, W2, W3 and W4 through the Micro BCA method. […]

[2] = biological target: αvβ6 (Homo sapiens (Human), UniProt P06756+P18564); experiment: αVβ6-LAP-TGF β1 integrin binding assay (integrin coupled beads, flow cytometry); settings: ligand LAP-TGF β1 10 nM; integrin 10 nM
Procedure: as §1, §2
All αv Integrins are known to bind to proteins with a RGD motif. […]
The integrin coupled Dyna beads were allowed to interact with respective ligands. The integrin-ligand complex was detected with either Primary/Secondary Antibody conjugated with Fluorescein Isothiocyanate (FITC). […] Fluorescence was measured by Flow Cytometry analysis. […]
as §3

Chain of αvβ8 (P06756 31-992): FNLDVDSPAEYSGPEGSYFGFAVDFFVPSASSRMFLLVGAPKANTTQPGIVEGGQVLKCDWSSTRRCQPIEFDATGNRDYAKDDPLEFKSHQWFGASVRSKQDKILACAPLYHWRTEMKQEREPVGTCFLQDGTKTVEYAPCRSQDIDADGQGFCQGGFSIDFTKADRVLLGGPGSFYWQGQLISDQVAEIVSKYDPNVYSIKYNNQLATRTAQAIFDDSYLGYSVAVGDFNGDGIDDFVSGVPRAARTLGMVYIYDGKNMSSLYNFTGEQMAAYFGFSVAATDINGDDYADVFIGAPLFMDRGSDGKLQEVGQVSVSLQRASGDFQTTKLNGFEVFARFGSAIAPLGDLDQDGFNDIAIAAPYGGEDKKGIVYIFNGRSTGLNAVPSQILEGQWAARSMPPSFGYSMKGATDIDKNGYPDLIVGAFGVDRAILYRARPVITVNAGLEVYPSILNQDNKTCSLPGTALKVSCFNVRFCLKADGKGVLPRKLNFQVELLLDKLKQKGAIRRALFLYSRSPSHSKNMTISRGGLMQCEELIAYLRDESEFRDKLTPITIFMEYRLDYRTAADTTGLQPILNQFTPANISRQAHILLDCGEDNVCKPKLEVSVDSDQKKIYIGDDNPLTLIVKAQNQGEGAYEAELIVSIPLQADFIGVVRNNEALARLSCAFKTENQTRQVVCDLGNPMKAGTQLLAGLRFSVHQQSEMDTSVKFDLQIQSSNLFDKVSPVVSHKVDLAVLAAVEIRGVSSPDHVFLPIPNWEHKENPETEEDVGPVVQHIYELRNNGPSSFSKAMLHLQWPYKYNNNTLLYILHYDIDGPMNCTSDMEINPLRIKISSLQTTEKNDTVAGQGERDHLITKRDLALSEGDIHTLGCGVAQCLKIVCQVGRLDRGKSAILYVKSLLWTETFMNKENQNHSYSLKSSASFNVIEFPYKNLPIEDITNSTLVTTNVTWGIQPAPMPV
Chain of αvβ8 (P26012 43-684): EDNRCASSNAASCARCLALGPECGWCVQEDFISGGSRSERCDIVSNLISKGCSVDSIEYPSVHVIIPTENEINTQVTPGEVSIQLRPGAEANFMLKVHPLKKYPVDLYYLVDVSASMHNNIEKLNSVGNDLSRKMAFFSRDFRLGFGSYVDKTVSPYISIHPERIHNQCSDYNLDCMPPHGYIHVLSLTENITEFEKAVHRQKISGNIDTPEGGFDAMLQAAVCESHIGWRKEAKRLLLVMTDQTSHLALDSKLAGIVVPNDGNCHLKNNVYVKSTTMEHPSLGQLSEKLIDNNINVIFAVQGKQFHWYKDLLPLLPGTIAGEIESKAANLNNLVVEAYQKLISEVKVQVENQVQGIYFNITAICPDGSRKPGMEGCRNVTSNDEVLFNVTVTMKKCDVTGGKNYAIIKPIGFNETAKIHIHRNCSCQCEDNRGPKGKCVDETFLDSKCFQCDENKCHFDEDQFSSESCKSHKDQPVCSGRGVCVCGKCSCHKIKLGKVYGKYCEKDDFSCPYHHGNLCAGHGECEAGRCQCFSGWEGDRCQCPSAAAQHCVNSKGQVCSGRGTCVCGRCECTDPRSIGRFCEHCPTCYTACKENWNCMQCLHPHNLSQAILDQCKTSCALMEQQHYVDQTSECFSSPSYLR
Chain of αvβ6 (P06756 31-992): as the sequence (P06756 31-992) above
Chain of αvβ6 (P18564 22-707): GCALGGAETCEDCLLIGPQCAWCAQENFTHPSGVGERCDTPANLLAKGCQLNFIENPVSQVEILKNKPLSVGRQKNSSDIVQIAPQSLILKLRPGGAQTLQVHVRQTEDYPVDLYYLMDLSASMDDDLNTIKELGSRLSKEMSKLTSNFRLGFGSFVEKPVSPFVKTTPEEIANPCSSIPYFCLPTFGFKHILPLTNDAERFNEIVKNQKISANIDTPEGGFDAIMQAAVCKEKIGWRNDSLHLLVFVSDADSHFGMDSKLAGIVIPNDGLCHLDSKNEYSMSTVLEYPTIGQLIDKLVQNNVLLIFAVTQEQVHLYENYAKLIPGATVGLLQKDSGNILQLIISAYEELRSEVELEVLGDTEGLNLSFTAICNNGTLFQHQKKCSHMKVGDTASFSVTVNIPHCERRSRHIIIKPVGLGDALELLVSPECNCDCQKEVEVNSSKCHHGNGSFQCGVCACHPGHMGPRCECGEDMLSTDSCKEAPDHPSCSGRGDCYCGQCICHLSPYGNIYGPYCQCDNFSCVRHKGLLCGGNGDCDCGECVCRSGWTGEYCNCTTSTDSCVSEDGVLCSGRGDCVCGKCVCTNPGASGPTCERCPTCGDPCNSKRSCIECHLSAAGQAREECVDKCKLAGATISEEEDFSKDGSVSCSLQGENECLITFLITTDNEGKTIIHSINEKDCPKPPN

| IC50 [1] | IC50 [2] | αvβ8/αvβ6 ([1]; ratio of αvβ8 IC50 to αvβ6 IC50) | SMILES |
| --- | --- | --- | --- |
| 232 nM | 394 nM |  | O=C(O)CC(c1cccc(C(F)(F)F)c1)N1CCN(CCCCNc2ccccn2)C1=O (stereo not drawn) [Compound A10] |
| 622 nM |  |  | O=C(O)CC(c1cccc(C(F)(F)F)c1)N1CCN(CCCCNC2=NCc3ccccc3C2)C1=O (stereo not drawn) [Compound A8] |
| 50.4 nM | 376 nM | 0.13 | O=C(O)CC(c1cccc(C(F)(F)F)c1)N1CCN(CCCCNc2nc3ccccc3[nH]2)C1=O (stereo not drawn) [Compound A1, 3-(3-(4-((1H-benzo[d]imidazol-2-yl)amino)butyl)-2-oxoimidazolidin-1-yl)-3-(3-(trifluoromethyl)phenyl)propanoic acid] |
